Results as given in US5977144A (priority 1997, dated 1999).
Read-outs that look alike come from different tables or passages of the source.

Key:
fimbrial transections = conditions: Meyer et al., in press; cited from earlier work
rat alpha4beta2 receptor [1] = target: T1, rat alpha4beta2 receptor (Rattus norvegicus, UniProt P09483+P12390); assay: Activation of alpha4beta2 receptors expressed in Xenopus oocytes; type: cell-based
Protocol: FIG. 14A. Responses of α4β2 ACHR to 3-CA, 2-MeOCA or 4-MeOCA. Concentration-response relationships for the peak agonist activated currents of oocytes injected with RNA coding for rat α4β2 subunits. Responses are first expressed relative to the response to 10 μM ACh, applied 5 min before drug-application, then normalized to the maximum response obtainable with ACh so that a response of 1 represents full efficacy. The ratio between 10 μM ACh and maximum ACh response was determined in separate experiments.
(§1) Oocytes were prepared and recordings made as described previously (de Fiebre, et al., 1995). Frogs were anesthetized by submersion in 0.1% (3)-aminobenzoic acid ethyl ester and several lobes of the ovary surgically removed through a small incision in the abdomen wall. Oocytes were freed from the follicle cells by treatment with collagenase (in calcium-free Barth's solution: 88 mM NaCl, 1 mM KCl, 15 mM Hepes pH 7.6, 0.33 mM MgSO4, 0.1 mg/ml gentamicin sulfate) for 2 hr at room temperature and Stage 5 oocytes were isolated. Oocytes were rinsed and stored at 18° C. in Barth's saline (88 mM NaCl, 1 mM KCl, 15 mM Hepes pH 7.6, 0.3 mM Ca(NO3)2, 0.41 mM CaCl2, 0.82 mM MgSO4, 0.1 mg/ml gentamicin sulfate) before and after microinjection with RNA. Microinjection was conducted with a Drummond Scientific "Nanoject Variable" automatic injector. Oocytes were injected with a 50 nl solution of specified rat nicotinic subunit mRNA species (2-10 mg/ml; derived from the cDNA containing HIP 306 plasmid kindly provided by Dr. Jim Boulter, Salk Institute) and incubated 2-7 days at 18° C. before electrophysiological recording. electrophysiological recordings, oocytes were perfused in a Warner Instruments RC-8 recording chamber with a perfusion solution containing 115 mM NaCl, 2.5 mM KCl, 10 mM Hepes pH 7.2, 1.8 mM CaCl2 and 1 μM atropine to block muscarinic responses. Perfusion was continuous at a rate of 10 ml/min. Drags were diluted in perfusion solution and applied using a solenoid valve to switch from perfusion to drug solutions. Current responses to drug administration were studied under two electrode voltage clamp at a holding potential of -70 mV using a Dagan Corp. TEV-200 voltage clamp connected to a 386-SX IBM computer using a TL-1 DMA interface (Axon Instruments). Micropipettes were filled with 3 M KCl and had resistances of 0.5-2 MOhms. Drug responses are analyzed with PClamp software (Axon Instruments). Oocytes with resting potentials of less than -30 mV were rejected.

[2] = target: alpha7 receptor (high affinity alpha-bungarotoxin binding, rat brain membranes) (Rattus norvegicus, UniProt Q05941); assay: biochemical
alpha7 receptor (high affinity alpha-bungarotoxin binding, rat brain membranes), sequence (Q05941 23-502): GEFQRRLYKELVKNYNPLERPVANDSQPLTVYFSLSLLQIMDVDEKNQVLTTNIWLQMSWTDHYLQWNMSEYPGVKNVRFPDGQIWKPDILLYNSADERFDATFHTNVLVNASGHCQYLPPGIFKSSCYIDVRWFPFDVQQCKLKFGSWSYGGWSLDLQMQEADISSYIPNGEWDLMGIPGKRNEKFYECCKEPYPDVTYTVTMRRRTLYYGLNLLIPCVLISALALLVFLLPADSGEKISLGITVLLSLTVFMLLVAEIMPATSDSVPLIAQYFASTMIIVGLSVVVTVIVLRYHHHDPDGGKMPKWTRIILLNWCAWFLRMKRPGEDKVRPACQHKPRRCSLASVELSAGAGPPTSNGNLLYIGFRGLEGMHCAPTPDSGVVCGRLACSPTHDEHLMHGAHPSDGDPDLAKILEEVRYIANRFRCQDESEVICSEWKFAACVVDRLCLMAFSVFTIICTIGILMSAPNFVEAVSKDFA

NB Lesion = NB Lesion (Table 4); type: in vivo
rat alpha7 receptor [3] = target: T2, rat alpha7 receptor (Rattus norvegicus, UniProt Q05941); assay: cell-based; set-up: Oocytes Antagonist: unit not given here; conditions: for Oocytes Antagonist: Table 4
T2 sequence (Q05941 23-502): as above
Protocol: FIG. 13B. Effects of chronic injections of DMXB or nicotine on high affinity [^3 H]ACh or [^125 I]α-bungarotoxin (BTX) binding in rat neocortices. Adult male rats were injected with saline vehicle, 1 mg/kg DMXB or 0.2 mg/kg nicotine (NIC) (IP) daily for 2 weeks. At that time, neocortices were removed and assayed for high affinity [^3 H]ACh or [^125 I]α-bungarotoxin binding as described in the text. […] Responses of rat α7 AChR to 3-CA, 2-MeOCA and 4-MeOCA. […] All responses are expressed relative to the oocyte-response to 500 μM ACh applied 5 min prior to the experimental agonist application.
as §1
(§2) Antagonist properties subsequent to agonist activity were measured as a decrease in responsiveness to ACh applied 5 min after compound-application, normalized to ACh application instead of the anabaseine-derivative (FIG. 13A AND FIG. 13B).

rat alpha7 receptor [4] = target: T2, rat alpha7 receptor; assay: cell-based
Protocol: FIG. 13A. Effects of chronic injections of DMXB or nicotine on high affinity [^3 H]ACh or [^125 I]α-bungarotoxin (BTX) binding in rat neocortices. Adult male rats were injected with saline vehicle, 1 mg/kg DMXB or 0.2 mg/kg nicotine (NIC) (IP) daily for 2 weeks. At that time, neocortices were removed and assayed for high affinity [^3 H]ACh or [^125 I]α-bungarotoxin binding as described in the text. […] Responses of rat α7 ACHR to 3-CA, 2-MeOCA and 4-MeOCA. Concentration-response relationships for the peak agonist activated currents of oocytes injected with RNA coding for the rat α7 subunit. All responses were initially measured relative to the individual oocyte-response to 500 μM ACh, applied 5 min prior to drug-application. Responses were normalized relative to the maximum response obtainable with ACh so that a response of 1 represents full efficacy. The ratio of 500 μM ACh control response to ACh maximum was taken from Papke et al., 1997.
as §1

[5] = target: T3, alpha4beta2 receptor (cytisine binding, rat brain membranes) (Rattus norvegicus, UniProt P09483+P12390); assay: biochemical; conditions: 1 μM (Table 2); read-out: alpha4beta2 binding: % inhibition of cytistine binding
T3 construct: from tissue; host or cells: rat brain membranes
T3 sequence (P09483 31-630): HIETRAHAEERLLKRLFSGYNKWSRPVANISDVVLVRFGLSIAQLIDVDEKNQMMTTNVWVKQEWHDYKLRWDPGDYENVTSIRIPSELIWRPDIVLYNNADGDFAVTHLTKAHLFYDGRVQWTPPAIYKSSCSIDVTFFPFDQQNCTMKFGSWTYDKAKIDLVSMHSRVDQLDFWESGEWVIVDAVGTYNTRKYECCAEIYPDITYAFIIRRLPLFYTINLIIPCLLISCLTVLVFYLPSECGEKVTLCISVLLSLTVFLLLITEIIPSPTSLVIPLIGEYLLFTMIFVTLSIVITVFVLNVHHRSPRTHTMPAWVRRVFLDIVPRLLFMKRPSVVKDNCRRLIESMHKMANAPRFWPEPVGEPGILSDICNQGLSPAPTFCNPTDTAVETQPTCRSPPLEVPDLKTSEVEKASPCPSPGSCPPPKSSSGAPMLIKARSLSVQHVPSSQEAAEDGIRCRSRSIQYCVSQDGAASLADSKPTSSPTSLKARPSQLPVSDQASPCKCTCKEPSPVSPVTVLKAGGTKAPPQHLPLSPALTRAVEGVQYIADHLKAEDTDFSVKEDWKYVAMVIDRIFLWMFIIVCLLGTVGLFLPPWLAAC
T3 sequence (P12390 25-500): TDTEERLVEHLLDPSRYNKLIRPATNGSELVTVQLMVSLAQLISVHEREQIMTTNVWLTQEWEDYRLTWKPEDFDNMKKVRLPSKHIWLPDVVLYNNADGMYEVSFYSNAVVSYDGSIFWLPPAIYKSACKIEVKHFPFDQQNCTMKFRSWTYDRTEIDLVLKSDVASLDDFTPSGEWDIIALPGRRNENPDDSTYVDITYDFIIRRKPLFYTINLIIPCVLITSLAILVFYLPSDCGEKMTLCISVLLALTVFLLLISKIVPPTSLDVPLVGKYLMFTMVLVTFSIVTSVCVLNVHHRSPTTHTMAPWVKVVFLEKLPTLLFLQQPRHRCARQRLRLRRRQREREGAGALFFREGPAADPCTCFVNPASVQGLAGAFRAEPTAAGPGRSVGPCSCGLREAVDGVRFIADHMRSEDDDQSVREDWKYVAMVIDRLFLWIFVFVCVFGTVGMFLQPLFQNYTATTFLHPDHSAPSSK
Description: Further, the cinnamylidene-anabaseines displaced high affinity cytisine binding to rat brain membranes with lower affinity than other types of benzylidene-anabaseines. These observations are consistent with the cinnamylidene-anabaseines having some selectivity for alpha7 receptor subtypes over other types of nicotinic receptors, especially alpha4beta2 receptors, based on the types of receptors to which alpha-bungarotoxin and cytisine bind to in brain.

rat alpha4beta2 receptor [6] = target: T1, rat alpha4beta2 receptor; assay: Antagonism of alpha4beta2 receptors in oocytes (residual inhibition of ACh response after drug); type: cell-based; conditions: xenopus oocytes
Protocol: as §1, with “Micropipettes were filled with 3 M KCl and had resistances of 0.5-2 MOhms.” left out, “Oocytes with resting potentials of less than -30 mV were rejected.” left out
as §2

[7] = Table 4, read-out: Oocytes Agonist α4
[8] = Table 4, read-out: Receptor Binding α7
[9] = Table 4, read-out: Oocytes Agonist α7

T1 sequence (P09483 31-630): as the sequence (P09483 31-630) above
T1 sequence (P12390 25-500): as the sequence (P12390 25-500) above

SMILES	activity against fimbrial transections in vivo (in words) (fimbrial transections)	Emax (rat alpha4beta2 receptor [1]; [7])	Emax (rat alpha4beta2 receptor [1]; read-out: alpha4beta2 activation: response compared to maximal acetylcholine)	inhibition at 1 µM [2, 8]	inhibition at 1 µM ([2]; concentration of 1 μM (Table 1), read-out: alpha7 binding: % Inhibition of high affinity alphabungarotoxin binding (1 nM))	NB Lesion (NB Lesion)	Oocytes Antagonist (rat alpha7 receptor [3])	Emax (rat alpha7 receptor [4]; [9])	Emax (rat alpha7 receptor [4]; read-out: alpha7 activation: response, normalized to 500 μM acetylcholine (maximum response))	inhibition at 1 µM [5]	inhibition at 1 µM ([2]; 1 μM (Table 2), read-out: alpha7 binding: % inhibition of alphabungarotoxin binding)	IC50 ([2]; rat brain membranes, read-out: IC50, [125I]α-bungarotoxin binding)	alpha4beta2 antagonism: % of antagonism of acetylcholine administered after drug (rat alpha4beta2 receptor [6])	inhibition of α7 receptors, estimated (rat alpha7 receptor [3]; 10 μM, estimated from oocyte results)	inhibition at 10 µM (rat alpha7 receptor [3]; 10 μM, ACh application 5 min later, read-out: long term inhibition of α7 receptors)	IC50 (rat alpha7 receptor [3]; ACh applied 5 min after compound, read-out: IC50, antagonism subsequent to agonist activity)	selectivity α7 over α4β2 (in words) (rat alpha7 receptor [4])	α7 receptor activation (in words) (rat alpha7 receptor [4]; oocyte expression system)	EC50 (rat alpha7 receptor [4]; oocytes, read-out: α7 EC50)	Emax (rat alpha7 receptor [4]; read-out: alpha7 activation: % response observed with 500 μM acetylcholine)
COc1ccc(/C=C2\CCCN=C2c2cccnc2)c(OC)c1 [DMXB, 3-(2,4-Dimethoxybenzylidene) anabaseine]	neuroprotective activity	< 1%	< 1%	52%	52%	+ (≥ 0.5)	.20	20%	20%	–	–	–	–	–	–	–	–	–	–	–
COc1ccccc1/C=C/C=C1\CCCN=C1c1cccnc1 [2-MeOCA, E,E-3-(2-Methoxycinnamylidene)anabaseine]	–	2.2%	–	94.9%	–	–	.08	96%	–	29%	94.9%	8 nM	10	over 90%	90%	2300 ± 700 nM	selectively activate α7 receptors over α4β2	fully efficaciously	6.2 ± 2.2 µM	96%
